The text below walks through data of patent US20240376097A1, “BCL-2 Inhibitor” (BeiGene Ltd., priority 2020, published 2024).

The test system of test [1] is RS4;11 (BCL-2 dependent acute lymphoblastic leukemia cell line). The test can be described thus: RS4;11 Cell Proliferation Assay. It counts as cell-based. Particulars: read-out: Cellular proliferation assay (IC50, nM) RS4. The method, boiled down: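 Viability measured via CellTiter-Glo luminescence after a 48 h, 37 °C exposure to compounds (10 points, highest 1 μM). Seeding was 50,000 RS4;11 cells per well in 10% FBS RPMI-1640; IC50 given as mean.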

Test [2] deals with recombinant human Bcl-2-G101V protein. Put plainly: Bcl-2-G101V TR-FRET Assay. In kind it is binding. The note with it: ratio of biochemical IC50 Bcl-2 G101V / Bcl-2 WT. In a few lines:
(§1)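 IC50 values derive from four-parameter logistic fitting of percent inhibition data. That inhibition of ligand binding to Bcl-2-G101V is computed from the 490 nm/520 nm TR-FRET ratio under 337 nm excitation, over a rising compound concentration series.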
In general terms: In TR-FRET formats the signal depends on donor and acceptor labels being close together.

Test [3] deals with recombinant human Bcl-2-G101V protein (Homo sapiens (Human), UniProt P10415, G101V). The test can be described thus: Bcl-2-G101V TR-FRET Assay. Particulars: Bcl-2 G101V mutant, TR-FRET; read-out: Biochemical assay (IC50, nM) Bcl-2 G101V. It counts as binding. The method, boiled down: as §1
The subject of test [4] is BCL-2 G101V knock-in cell line H96 (derive from RS4;11). Put plainly: Bcl 2-G101V Knock-In RS4;11 Cell Proliferation Assay. It counts as cell-based. Particulars: RS4;11 Bcl-2 G101V knock-in clone H96, 48 hrs, CellTiter-GLO, read-out: Cellular proliferation assay (IC50, nM) RS4. The method, boiled down: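 CellTiter-Glo luminescence after 48 h, 37 °C compound treatment (10 concentrations, maximum 1 μM or 10 μM) gave mean IC50 values. Cells were 50,000 per well of H96, a BCL2-G101V knock-in single clone derived from RS4;11 by Cas9 editing.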
Background: In ATP-based viability assays light output follows the ATP content of the culture.

Test [5] deals with Recombinant human Bcl-2 protein (Homo sapiens (Human), UniProt P10415). Put plainly: Bcl-2 TR-FRET Assay. In kind it is binding. In a few lines: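 In pH 7.5 phosphate buffer containing NaCl, EDTA, Tween-20 and BSA, 0.05 nM Bcl-2 saw serially diluted compound for 0.5 h before 0.5 nM FITC-Bak peptide was added. Signal ratio at 520/490 nm after 1 h yielded IC50.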
The target in test [6] is recombinant human Bcl-2 D103Y protein (Homo sapiens (Human), UniProt P10415, D103Y). The test can be described thus: Bcl-2-D103Y Biochemical Assay (TR-FRET). It counts as binding. In a few lines: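 Compounds titrated against the Bcl-2 D103Y–ligand interaction; inhibition derived from the TR-FRET emission ratio 490 nm/520 nm after 337 nm excitation. Four-parameter logistic fitting gave IC50.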

The mark [7] stands for this setting: Bcl-2 wild type, TR-FRET, read-out: Biochemical assay (IC50, nM) Bcl-2 WT.
The mark [8] stands for this setting: Homo sapiens, RS4-11, RS4;11 cells.

pIC50: −log10 of the molar value. Like-named read-outs stand apart in the source and are kept apart here.

Turning to “2-((1H-pyrrolo[2,3-b]pyridin-5-yl) oxy)-N-((4-((((1r,4r)-4-hydroxy-4- methylcyclohexyl)methyl)amino)- 3-nitrophenyl)sulfonyl)-4-(2-((R)- 2-(2-isopropylphenyl)-4-((7- methoxybenzofuran-5-yl)methyl) piperazin-1-yl)-7-azaspiro[3.5] nonan-7-yl)benzamide [Example 280]”, the IC50 was determined as 0.14 nM in test [1] (RS4;11 cells); 0.56 nM in test [3]; 0.43 nM in test [4]; 0.26 nM in test [5] (setting [7]); 0.26 nM in test [5] (wild type Bcl-2, unit inferred, read-out: Bcl-2 WT). Moreover, in test [2], the “Ratio of Bcl-2 G101V/WT” value was 2.2. Further, in test [6] (TR-FRET, FITC labeled Bak peptide), the pIC50 is 9.64. For the same compound, in test [6] (ratio of IC50), the “Ratio of Bcl-2 D103Y/Bcl-2 WT” value was 0.89.

On to `COc1cc(CN2CCN(C3CC4(C3)CN(c3ccc(C(=O)NS(=O)(=O)c5ccc(NC[C@H]6CC[C@](C)(O)CC6)c([N+](=O)[O-])c5)c(Oc5cnc6[nH]ccc6c5)c3)C4)[C@H](c3ccccc3C(C)C)C2)cc2c1OCCC2(C)C` [Example 334], for which the IC50 in test [1] (setting [8]) came out at 0.17 nM; in test [3], 0.33 nM; in test [4] (Homo sapiens), 0.65 nM; in test [5] (setting [7]), 0.12 nM. For the same compound, the “Ratio of Bcl-2 G101V/WT” value in test [2] is 2.8.

Regarding `COc1cc(CN2CCN(C3CC4(C3)CN(c3ccc(C(=O)NS(=O)(=O)c5ccc(NC[C@H]6CC[C@](C)(O)CC6)c([N+](=O)[O-])c5)c(Oc5cnc6[nH]cc(F)c6c5)c3)C4)[C@H](c3ccccc3C(C)C)C2)cc2c1OCCCO2` [Example 335, 2-((3-fluoro-1H-pyrrolo[2,3-b]pyridin-5-yl)oxy)-N-((4-((((1r,4r)-4-hydroxy-4-methylcyclohexyl)methyl)amino)-3-nitrophenyl)sulfonyl)-4-(6-((R)-2-(2-isopropylphenyl)-4-((9-methoxy-3,4-dihydro-2H-benzo[b][1,4]dioxepin-7-yl)methyl)piperazin-1-yl)-2-azaspiro[3.3]heptan-2-yl) benzamide], the IC50 in test [1] (setting [8]) was found to be 0.17 nM; in test [3], 0.15 nM; in test [4] (Homo sapiens), 0.34 nM; in test [5] (setting [7]), 0.06 nM. Also, the “Ratio of Bcl-2 G101V/WT” value in test [2] is given as 2.6.

Consider `COc1cc(CN2CCN(C3CC4(C3)CN(c3ccc(C(=O)NS(=O)(=O)c5ccc(NC[C@H]6CC[C@](C)(O)CC6)c([N+](=O)[O-])c5)c(Oc5cnc6[nH]ccc6c5)c3)C4)[C@H](c3ccccc3C(C)C)C2)cc2c1OC(C)(C)CC2` [Example 336, 2-((1H-pyrrolo[2,3-b]pyridin-5-yl)oxy)-N-((4-((((1r,4r)-4-hydroxy-4-methylcyclohexyl)methyl)amino)-3-nitrophenyl)sulfonyl)-4-(6-((R)-2-(2-isopropylphenyl)-4-((8-methoxy-2,2-dimethylchroman-6-yl)methyl)piperazin-1-yl)-2-azaspiro[3.3]heptan-2-yl) benzamide], for which the IC50 was 0.2 nM in test [1] (setting [8]), 0.38 nM in test [3], 1.1 nM in test [4] (Homo sapiens) and 0.09 nM in test [5] (setting [7]). Further, the “Ratio of Bcl-2 G101V/WT” value in test [2] worked out at 4.2.

As to `COc1cc(CN2CCN(C3CC4(C3)CN(c3ccc(C(=O)NS(=O)(=O)c5ccc(NC[C@H]6CC[C@](C)(O)CC6)c([N+](=O)[O-])c5)c(Oc5cnc6[nH]cc(F)c6c5)c3)C4)[C@H](c3ccccc3C(C)C)C2)ccc1C1CCC1` [Example 341, 4-(6-((R)-4-(4-cyclobutyl-3-methoxybenzyl)-2-(2-isopropylphenyl)piperazin-1-yl)-2-azaspiro[3.3]heptan-2-yl)-2-((3-fluoro-1H-pyrrolo[2,3-b]pyridin-5-yl)oxy)-N-((4-((((1r,4r)-4-hydroxy-4-methylcyclohexyl)methyl)amino)-3-nitrophenyl)sulfonyl)benzamide], the IC50 in test [1] (setting [8]) came to 0.12 nM; in test [3], 4.5 nM; in test [4] (Homo sapiens), 0.68 nM; in test [5] (setting [7]), 1.6 nM. Further, the “Ratio of Bcl-2 G101V/WT” value in test [2] was 2.8.

As for `COc1cc(CN2CCN(C3CC4(C3)CN(c3ccc(C(=O)NS(=O)(=O)c5ccc(NC[C@H]6CC[C@](C)(O)CC6)c([N+](=O)[O-])c5)c(Oc5cnc6[nH]ccc6c5)c3)C4)[C@H](c3ccccc3C(C)C)C2)ccc1C1CCC1` [Example 342, 2-((1H-pyrrolo[2,5-b]pyridin-5-yl)oxy)-4-(6-((R)-4-(4-cyclobutyl-3-methoxybenzyl)-2-(2-isopropylphenyl)piperazin-1-yl)-2-azaspiro[3.3]heptan-2-yl)-N-((4-((((1r,4r)-4-hydroxy-4-methylcyclohexyl)methyl)amino)-3-nitrophenyl)sulfonyl)benzamide], the IC50 in test [1] (setting [8]) stood at 0.28 nM; in test [3] it was 3.3 nM; in test [4] (Homo sapiens), 2 nM; in test [5] (setting [7]), 0.97 nM. For the same compound, the “Ratio of Bcl-2 G101V/WT” value in test [2] is listed as 2.9.

As for `COC12CC3CC(CC(CN4CCN(C5CC6(C5)CN(c5ccc(C(=O)NS(=O)(=O)c7ccc(NC[C@H]8CC[C@](C)(O)CC8)c([N+](=O)[O-])c7)c(Oc7cnc8[nH]cc(F)c8c7)c5)C6)[C@H](c5ccccc5C(C)C)C4)(C3)C1)C2` [Example 352], the IC50 came out at 0.45 nM in test [1] (setting [8]), 2.2 nM in test [3], 4.56 nM in test [4] (Homo sapiens) and 0.52 nM in test [5] (setting [7]). The “Ratio of Bcl-2 G101V/WT” value in test [2] turned out to be 4.2.

As to `COc1cc(CN2CCN(C3CC4(C3)CN(c3ccc(C(=O)NS(=O)(=O)c5ccc(NC[C@H]6CC[C@](C)(O)CC6)c([N+](=O)[O-])c5)c(Oc5cnc6[nH]cc(F)c6c5)c3)C4)[C@H](c3ccccc3C(C)C)C2)cc2c1OCCC2(F)F` [Example 354, 4-(6-((R)-4-((4,4-difluoro-8-methoxychroman-6-yl)methyl)-2-(2-isopropylphenyl)piperazin-1-yl)-2-azaspiro[3.3]heptan-2-yl)-2-((3-fluoro-1H-pyrrolo[2,3-b]pyridin-5-yl)oxy)-N-((4-((((1r,4r)-4-hydroxy-4-methylcyclohexyl)methyl)amino)-3-nitrophenyl)sulfonyl)benzamide], the IC50 in test [1] (setting [8]) was determined as 0.14 nM; in test [3] it was 1.9 nM; in test [4] (Homo sapiens) it was 3 nM; in test [5] (setting [7]), 0.9 nM. Moreover, the “Ratio of Bcl-2 G101V/WT” value in test [2] is given as 2.2.

`COc1ccc(CN2CCN(C3CC4(C3)CN(c3ccc(C(=O)NS(=O)(=O)c5ccc(NCC67CC8CC(C6)C(OC)C(C8)C7)c([N+](=O)[O-])c5)c(Oc5cnc6[nH]cc(F)c6c5)c3)C4)[C@H](c3ccccc3C(C)C)C2)cc1` (stereo partly drawn) [Example 356, 2-((3-fluoro-1H-pyrrolo[2,3-b]pyridin-5-yl)oxy)-4-(6-((R)-2-(2-isopropylphenyl)-4-(4-methoxybenzyl)piperazin-1-yl)-2-azaspiro[3.3]heptan-2-yl)-N-((4-((((1S,3R,7S)-4-methoxyadamantan-1-yl)methyl)amino)-3-nitrophenyl)sulfonyl) benzamide]: the IC50 was determined as 0.31 nM in test [1] (setting [8]), 4.2 nM in test [3], 1.7 nM in test [4] (Homo sapiens) and 1.5 nM in test [5] (setting [7]). Further, the “Ratio of Bcl-2 G101V/WT” value in test [2] came out at 2.9.

Consider `CC(C)c1ccccc1[C@@H]1CN(Cc2ccc(N3CCOCC3)cc2)CCN1C1CC2(C1)CN(c1ccc(C(=O)NS(=O)(=O)c3ccc(NC[C@H]4CC[C@](C)(O)CC4)c([N+](=O)[O-])c3)c(Oc3cnc4[nH]cc(F)c4c3)c1)C2` [Example 368], for which the IC50 amounted to 0.096 nM in test [1] (setting [8]), 0.29 nM in test [3], 0.24 nM in test [4] (Homo sapiens) and 0.064 nM in test [5] (setting [7]). For the same compound, in test [2], the “Ratio of Bcl-2 G101V/WT” value is given as 4.5.

As a reminder, the pIC50 is −log10 of the IC50, conventionally taken in molar units.
